Source: patent US12049450B2, “Pyridyloxy-carboxylate derivative and preparation method therefor, herbicidal composition, and use” (Qingdao Kingagroot Chemical Compound Co., Ltd., priority 2018, dated 2024)

Tests used:
Assay in all cases: Post-emergence test experiment (greenhouse pot, spray at 2-3 leaf stage)
Assay type in all cases: in vivo
Details in all cases: 1000 g/ha; post-emergence spray at 2-3 leaf stage; assessed after 3 weeks; fresh weight inhibition rate
[1] = test system: Galium spurium
Outline: (§1)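 Weed seeds sown in soil-filled pots in greenhouse, sprayed at 2-3 leaf stage (2 weeks after sowing) with compound in acetone/tween-80 plus methyl oleate emulsible concentrate (1.5 L/ha) diluted in water. Fresh-weight growth inhibition scored after 3 weeks on 0-5 scale (5: >85%, 0: <5%).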

[2] = test system: Abutilon theophrasti
Outline: as §1

[3] = test system: Echinochloa crusgalli
Outline: as §1

[4] = test system: Monochoria vaginalis
Outline: as §1

[5] = test system: Digitaria sanguinalis
Outline: as §1

Row | SMILES | Activity level (growth inhibition rate) Galium spurium [1] | Activity level (growth inhibition rate) Abutilon theophrasti [2] | Activity level (growth inhibition rate) Echinochloa crusgalli [3] | Activity level (growth inhibition rate) Monochoria Vaginalis [4] | Activity level (growth inhibition rate) Digitaria sanguinalis [5]
1 | CC(Oc1nc(F)c(Cl)c(N)c1Cl)C(=O)SCc1csnn1 (stereo not shown) [Compound 168] | 5 (Level 5: the growth inhibition rate is greater than 85%) | 5 (Level 5: the growth inhibition rate is greater than 85%) | 5 (Level 5: the growth inhibition rate is greater than 85%) | 5 (Level 5: the growth inhibition rate is greater than 85%) | 5 (Level 5: the growth inhibition rate is greater than 85%)
2 | CC(Oc1nc(F)c(Cl)c(N)c1Cl)C(=O)OCC1C=C2C=CC=CC2N1 (stereo not shown) [Compound 169] | 5 (Level 5: the growth inhibition rate is greater than 85%) | 5 (Level 5: the growth inhibition rate is greater than 85%) | 5 (Level 5: the growth inhibition rate is greater than 85%) | 5 (Level 5: the growth inhibition rate is greater than 85%) | 5 (Level 5: the growth inhibition rate is greater than 85%)
3 | CC(Oc1nc(F)c(Cl)c(N)c1Cl)C(=O)SCc1nc2ccccc2[nH]1 (stereo not shown) [Compound 170] | 5 (Level 5: the growth inhibition rate is greater than 85%) | 5 (Level 5: the growth inhibition rate is greater than 85%) | 5 (Level 5: the growth inhibition rate is greater than 85%) | 5 (Level 5: the growth inhibition rate is greater than 85%) | 5 (Level 5: the growth inhibition rate is greater than 85%)
4 | CC(Oc1nc(F)c(Cl)c(N)c1Cl)C(=O)OCc1ccc2c(ccn2C)c1 (stereo not shown) [Compound 171] | 5 (Level 5: the growth inhibition rate is greater than 85%) | 5 (Level 5: the growth inhibition rate is greater than 85%) | 5 (Level 5: the growth inhibition rate is greater than 85%) | 5 (Level 5: the growth inhibition rate is greater than 85%) | 5 (Level 5: the growth inhibition rate is greater than 85%)
5 | CCn1cnc2ccc(COC(=O)C(C)Oc3nc(F)c(Cl)c(N)c3Cl)cc21 (stereo not shown) [Compound 172] | 5 (Level 5: the growth inhibition rate is greater than 85%) | 5 (Level 5: the growth inhibition rate is greater than 85%) | 5 (Level 5: the growth inhibition rate is greater than 85%) | 5 (Level 5: the growth inhibition rate is greater than 85%) | 5 (Level 5: the growth inhibition rate is greater than 85%)
6 | CC(Oc1nc(F)c(Cl)c(N)c1Cl)C(=O)OCc1cc2ccccc2o1 (stereo not shown) [Compound 173] | 5 (Level 5: the growth inhibition rate is greater than 85%) | 5 (Level 5: the growth inhibition rate is greater than 85%) | 5 (Level 5: the growth inhibition rate is greater than 85%) | 5 (Level 5: the growth inhibition rate is greater than 85%) | 5 (Level 5: the growth inhibition rate is greater than 85%)
7 | CC(Oc1nc(F)c(Cl)c(N)c1Cl)C(=O)SCc1ccc2ncoc2c1 (stereo not shown) [Compound 174] | 5 (Level 5: the growth inhibition rate is greater than 85%) | 5 (Level 5: the growth inhibition rate is greater than 85%) | 5 (Level 5: the growth inhibition rate is greater than 85%) | 5 (Level 5: the growth inhibition rate is greater than 85%) | 5 (Level 5: the growth inhibition rate is greater than 85%)
8 | Cc1nc2cc(COC(=O)C(C)Oc3nc(F)c(Cl)c(N)c3Cl)ccc2o1 (stereo not shown) [Compound 175] | 5 (Level 5: the growth inhibition rate is greater than 85%) | 5 (Level 5: the growth inhibition rate is greater than 85%) | 5 (Level 5: the growth inhibition rate is greater than 85%) | 5 (Level 5: the growth inhibition rate is greater than 85%) | 5 (Level 5: the growth inhibition rate is greater than 85%)
9 | CC(Oc1nc(F)c(Cl)c(N)c1Cl)C(=O)OCc1ccc2c(c1)OCO2 (stereo not shown) [Compound 176] | 5 (Level 5: the growth inhibition rate is greater than 85%) | 5 (Level 5: the growth inhibition rate is greater than 85%) | 5 (Level 5: the growth inhibition rate is greater than 85%) | 5 (Level 5: the growth inhibition rate is greater than 85%) | 5 (Level 5: the growth inhibition rate is greater than 85%)
10 | CC(Oc1nc(F)c(Cl)c(N)c1Cl)C(=O)OCc1cc2ccccc2s1 (stereo not shown) [Compound 177] | 5 (Level 5: the growth inhibition rate is greater than 85%) | 5 (Level 5: the growth inhibition rate is greater than 85%) | 5 (Level 5: the growth inhibition rate is greater than 85%) | 5 (Level 5: the growth inhibition rate is greater than 85%) | 5 (Level 5: the growth inhibition rate is greater than 85%)
11 | CC(Oc1nc(F)c(Cl)c(N)c1Cl)C(=O)OCc1nc2ccccc2s1 (stereo not shown) [Compound 178] | 5 (Level 5: the growth inhibition rate is greater than 85%) | 5 (Level 5: the growth inhibition rate is greater than 85%) | 5 (Level 5: the growth inhibition rate is greater than 85%) | 5 (Level 5: the growth inhibition rate is greater than 85%) | 5 (Level 5: the growth inhibition rate is greater than 85%)
12 | CC(Oc1nc(F)c(Cl)c(N)c1Cl)C(=O)SCCc1ccc2ccsc2c1 (stereo not shown) [Compound 179] | 5 (Level 5: the growth inhibition rate is greater than 85%) | 5 (Level 5: the growth inhibition rate is greater than 85%) | 5 (Level 5: the growth inhibition rate is greater than 85%) | 5 (Level 5: the growth inhibition rate is greater than 85%) | 5 (Level 5: the growth inhibition rate is greater than 85%)
13 | CC(Oc1nc(F)c(Cl)c(N)c1Cl)C(=O)OCc1ccc2ncsc2c1 (stereo not shown) [Compound 180] | 5 (Level 5: the growth inhibition rate is greater than 85%) | 5 (Level 5: the growth inhibition rate is greater than 85%) | 5 (Level 5: the growth inhibition rate is greater than 85%) | 5 (Level 5: the growth inhibition rate is greater than 85%) | 5 (Level 5: the growth inhibition rate is greater than 85%)
14 | CC(Oc1nc(F)c(Cl)c(N)c1Cl)C(=O)OCc1ccc2ccccc2c1 (stereo not shown) [Compound 181] | 5 (Level 5: the growth inhibition rate is greater than 85%) | 5 (Level 5: the growth inhibition rate is greater than 85%) | 5 (Level 5: the growth inhibition rate is greater than 85%) | 5 (Level 5: the growth inhibition rate is greater than 85%) | 5 (Level 5: the growth inhibition rate is greater than 85%)
15 | CC(Oc1nc(F)c(Cl)c(N)c1Cl)C(=O)SCc1ccc2cc(Cl)ccc2c1 (stereo not shown) [Compound 182] | 5 (Level 5: the growth inhibition rate is greater than 85%) | 5 (Level 5: the growth inhibition rate is greater than 85%) | 5 (Level 5: the growth inhibition rate is greater than 85%) | 5 (Level 5: the growth inhibition rate is greater than 85%) | 5 (Level 5: the growth inhibition rate is greater than 85%)
16 | COc1ccc2ccc(COC(=O)C(C)Oc3nc(F)c(Cl)c(N)c3Cl)cc2c1 (stereo not shown) [Compound 183] | 5 (Level 5: the growth inhibition rate is greater than 85%) | 5 (Level 5: the growth inhibition rate is greater than 85%) | 5 (Level 5: the growth inhibition rate is greater than 85%) | 5 (Level 5: the growth inhibition rate is greater than 85%) | 5 (Level 5: the growth inhibition rate is greater than 85%)
17 | CC(Oc1nc(F)c(Cl)c(N)c1Cl)C(=O)OCc1ccc2cnccc2c1 (stereo not shown) [Compound 184] | 5 (Level 5: the growth inhibition rate is greater than 85%) | 5 (Level 5: the growth inhibition rate is greater than 85%) | 5 (Level 5: the growth inhibition rate is greater than 85%) | 5 (Level 5: the growth inhibition rate is greater than 85%) | 5 (Level 5: the growth inhibition rate is greater than 85%)
